The NIST ThermoML archive (doi:10.1021/acs.jced.9b00436)
“And” between values parts separate entries of the source, which are not always exact repeats. Equal entries are not always repeated. Numbers after ± are expanded uncertainties.

Columns and labels:
[1] = an = ratio of the nth substance listed; details: 100 kPa, Liquid; for viscosity: Falling or rolling sphere viscometry; for speed of sound: Frequency=5 MHz, Single path-length method; for mass density: Vibrating tube method
[2] = xn = mol fraction of the nth substance listed; details: 308 K; 100 kPa; Liquid; Frequency=5 MHz; Single path-length method; x2 = 0.333
[3] = 100 kPa, Liquid, Frequency=5 MHz, Single path-length method

`CCCCCCCC[N+](C)(CCCCCCCC)CCCCCCCC.[Br-]` [methyltrioctylammonium bromide] + CCCCCCCCCC(=O)O gave a viscosity ([1]; 293 K, a2 = 2) of 806 ± 330 mPa·s, a speed of sound ([1]; 293 K, a2 = 2) of 1406 ± 28 m/s and a mass density ([1]; 293 K, a2 = 2) of 945.4 ± 19 kg/m3. For the same molecule, the viscosity ([1]; 298 K, a2 = 2) was 572.6 ± 230 mPa·s, the speed of sound ([1]; 298 K, a2 = 2) was 1393 ± 28 m/s and the mass density ([1]; 298 K, a2 = 2) was 942.2 ± 19 kg/m3. It also gave a viscosity ([1]; 303 K, a2 = 2) of 411.4 ± 170 mPa·s, a speed of sound ([1]; 303 K, a2 = 2) of 1375 ± 28 m/s and a mass density ([1]; 303 K, a2 = 2) of 939.9 ± 19 kg/m3. It also gave a viscosity ([1]; 308 K, a2 = 2) of 305.2 ± 120 mPa·s, a speed of sound ([1]; 308 K, a2 = 2) of 1357 ± 27 m/s and a mass density ([1]; 308 K, a2 = 2) of 935.2 ± 19 kg/m3. For the same molecule, the viscosity ([1]; 313 K, a2 = 2) was 226.2 ± 91 mPa·s, the speed of sound ([1]; 313 K, a2 = 2) was 1341 ± 27 m/s and the mass density ([1]; 313 K, a2 = 2) was 931.9 ± 19 kg/m3. It also gave a viscosity ([1]; 318 K, a2 = 2) of 171.5 ± 69 mPa·s, a speed of sound ([1]; 318 K, a2 = 2) of 1326 ± 27 m/s and a mass density ([1]; 318 K, a2 = 2) of 928.3 ± 19 kg/m3. For the same molecule, the viscosity ([1]; 323 K, a2 = 2) was 132.4 ± 53 mPa·s, the speed of sound ([1]; 323 K, a2 = 2) was 1312 ± 26 m/s and the mass density ([1]; 323 K, a2 = 2) was 925.3 ± 18 kg/m3. The viscosity ([1]; 328 K, a2 = 2) was 104.5 ± 42 mPa·s, the speed of sound ([1]; 328 K, a2 = 2) was 1297 ± 26 m/s and the mass density ([1]; 328 K, a2 = 2) was 923.1 ± 18 kg/m3. It also gave a viscosity ([1]; 333 K, a2 = 2) of 83.7 ± 34 mPa·s, a speed of sound ([1]; 333 K, a2 = 2) of 1283 ± 26 m/s and a mass density ([1]; 333 K, a2 = 2) of 920.8 ± 18 kg/m3.

`O=C(O)CC(=O)O` [propanedioic acid] + C[N+](C)(C)CCO.[Cl-] gave a mass density ([1]; 293 K, a1 = 1) of 1185.1 ± 24 kg/m3, a mass density ([1]; 298 K, a1 = 1) of 1182.1 ± 24 kg/m3 and a viscosity ([1]; 303 K, a1 = 2) of 1128.6 ± 460 mPa·s. The speed of sound ([1]; 303 K, a1 = 2) was 1876 ± 38 m/s, the mass density ([1]; 303 K, a1 = 1) was 1178.6 ± 24 kg/m3 and the viscosity ([1]; 308 K, a1 = 2) was 812.9 ± 330 mPa·s. It also gave a speed of sound ([1]; 308 K, a1 = 2) of 1863 ± 37 m/s, a mass density ([1]; 308 K, a1 = 1) of 1175.6 ± 24 kg/m3 and a viscosity ([1]; 313 K, a1 = 2) of 597.3 ± 240 mPa·s. The speed of sound ([1]; 313 K, a1 = 2) was 1851 ± 37 m/s, the mass density ([1]; 313 K, a1 = 1) was 1172.3 ± 24 kg/m3 and the viscosity ([1]; 318 K, a1 = 2) was 446.1 ± 180 mPa·s. It also gave a speed of sound ([1]; 318 K, a1 = 2) of 1838 ± 37 m/s, a mass density ([1]; 318 K, a1 = 1) of 1169.1 ± 23 kg/m3 and a viscosity ([1]; 323 K, a1 = 2) of 342.3 ± 140 mPa·s. For the same molecule, the speed of sound ([1]; 323 K, a1 = 2) was 1825 ± 37 m/s, the mass density ([1]; 323 K, a1 = 1) was 1166 ± 23 kg/m3 and the speed of sound ([1]; 328 K, a1 = 2) was 1812 ± 36 m/s. The mass density ([1]; 328 K, a1 = 1) was 1162.7 ± 23 kg/m3, the speed of sound ([1]; 333 K, a1 = 2) was 1799 ± 36 m/s and the mass density ([1]; 333 K, a1 = 1) was 1160.3 ± 23 kg/m3.

Molecule `CCCCCCCC[N+](CCCCCCCC)(CCCCCCCC)CCCCCCCC.[Br-]` [tetraoctylammonium bromide] + CCCCCCCCCC(=O)O has a viscosity ([1]; 293 K, a2 = 2) of 908.9 ± 370 mPa·s, a speed of sound ([1]; 293 K, a2 = 2) of 1416 ± 28 m/s and a mass density ([1]; 293 K, a2 = 2) of 933.7 ± 19 kg/m3. It also gave a viscosity ([1]; 298 K, a2 = 2) of 648 ± 260 mPa·s, a speed of sound ([1]; 298 K, a2 = 2) of 1402 ± 28 m/s and a mass density ([1]; 298 K, a2 = 2) of 930.6 ± 19 kg/m3. For the same molecule, the viscosity ([1]; 303 K, a2 = 2) was 472 ± 190 mPa·s, the speed of sound ([1]; 303 K, a2 = 2) was 1382 ± 28 m/s and the mass density ([1]; 303 K, a2 = 2) was 928.4 ± 19 kg/m3. For the same molecule, the viscosity ([1]; 308 K, a2 = 2) was 350 ± 140 mPa·s, the speed of sound ([1]; 308 K, a2 = 2) was 1365 ± 27 m/s and the mass density ([1]; 308 K, a2 = 2) was 923.7 ± 18 kg/m3. It also gave a viscosity ([1]; 313 K, a2 = 2) of 264.3 ± 110 mPa·s, a speed of sound ([1]; 313 K, a2 = 2) of 1347 ± 27 m/s and a mass density ([1]; 313 K, a2 = 2) of 920.5 ± 18 kg/m3. For the same molecule, the viscosity ([1]; 318 K, a2 = 2) was 201.1 ± 81 mPa·s, the speed of sound ([1]; 318 K, a2 = 2) was 1331 ± 27 m/s and the mass density ([1]; 318 K, a2 = 2) was 916.9 ± 18 kg/m3. It also gave a viscosity ([1]; 323 K, a2 = 2) of 156.9 ± 63 mPa·s, a speed of sound ([1]; 323 K, a2 = 2) of 1317 ± 26 m/s and a mass density ([1]; 323 K, a2 = 2) of 913.9 ± 18 kg/m3. For the same molecule, the viscosity ([1]; 328 K, a2 = 2) was 123.4 ± 50 mPa·s, the speed of sound ([1]; 328 K, a2 = 2) was 1301 ± 26 m/s and the mass density ([1]; 328 K, a2 = 2) was 911.8 ± 18 kg/m3. The viscosity ([1]; 333 K, a2 = 2) was 98.4 ± 39 mPa·s, the speed of sound ([1]; 333 K, a2 = 2) was 1287 ± 26 m/s and the mass density ([1]; 333 K, a2 = 2) was 909.5 ± 18 kg/m3.

For `NC(N)=O` [urea] + C[N+](C)(C)CCO.[Cl-], the viscosity ([1]; 293 K, a1 = 2) was 1372 ± 570 mPa·s, the speed of sound ([1]; 293 K, a1 = 2) was 2045 ± 41 m/s and the mass density ([1]; 293 K, a1 = 2) was 1200.1 ± 24 kg/m3. For the same molecule, the viscosity ([1]; 298 K, a1 = 2) was 985.1 ± 400 mPa·s, the speed of sound ([1]; 298 K, a1 = 2) was 2035 ± 41 m/s and the mass density ([1]; 298 K, a1 = 2) was 1198.1 ± 24 kg/m3. For the same molecule, the viscosity ([1]; 303 K, a1 = 2) was 527.3 ± 210 mPa·s, the speed of sound ([1]; 303 K, a1 = 2) was 2027 ± 41 m/s and the mass density ([1]; 303 K, a1 = 2) was 1194.5 ± 24 kg/m3. The viscosity ([1]; 308 K, a1 = 2) was 397.2 ± 160 mPa·s, the speed of sound ([1]; 308 K, a1 = 2) was 2020 ± 40 m/s and 2018 ± 40 m/s and the mass density ([1]; 308 K, a1 = 2) was 1191.7 ± 24 kg/m3. The viscosity ([1]; 313 K, a1 = 2) was 238.1 ± 96 mPa·s, the speed of sound ([1]; 313 K, a1 = 2) was 2009 ± 40 m/s and the mass density ([1]; 313 K, a1 = 2) was 1188.7 ± 24 kg/m3. It also gave a viscosity ([1]; 318 K, a1 = 2) of 181.6 ± 73 mPa·s, a speed of sound ([1]; 318 K, a1 = 2) of 2002 ± 40 m/s and a mass density ([1]; 318 K, a1 = 2) of 1185.5 ± 24 kg/m3. For the same molecule, the viscosity ([1]; 323 K, a1 = 2) was 119.8 ± 48 mPa·s, the speed of sound ([1]; 323 K, a1 = 2) was 1992 ± 40 m/s and the mass density ([1]; 323 K, a1 = 2) was 1183.1 ± 24 kg/m3. The viscosity ([1]; 328 K, a1 = 2) was 98.2 ± 39 mPa·s, the speed of sound ([1]; 328 K, a1 = 2) was 1983 ± 40 m/s and the mass density ([1]; 328 K, a1 = 2) was 1179.2 ± 24 kg/m3. For the same molecule, the viscosity ([1]; 333 K, a1 = 2) was 68.6 ± 28 mPa·s, the speed of sound ([1]; 333 K, a1 = 2) was 1976 ± 40 m/s and the mass density ([1]; 333 K, a1 = 2) was 1177.3 ± 24 kg/m3. The speed of sound [2] was 2016 ± 40 m/s.

`O` [water] gave a speed of sound ([3]; 298 K) of 1501 ± 30 m/s, a speed of sound ([3]; 303 K) of 1511.5 ± 30 m/s and a speed of sound ([3]; 313 K) of 1527.5 ± 31 m/s. For the same molecule, the speed of sound ([3]; 318 K) was 1535 ± 31 m/s, the speed of sound ([3]; 323 K) was 1542 ± 31 m/s and the speed of sound ([3]; 328 K) was 1547 ± 31 m/s. For the same molecule, the speed of sound ([3]; 333 K) was 1550 ± 31 m/s.
